# Laboratory results: US20010004643A1, “Pharmaceutical composition with sotalol combination and their use in treatment of cardiac ailments” (priority 1999, published 2001)
# “Also recorded” adds a separate entry of the source. Marks after values point to notes of the source that are not given here.
# Experiments:
# [1] = system: ouabain induced arrhythmia (VT, VF, mortality); assay: Ouabain induced arrhythmia model in guinea pig; type: in vivo; conditions: for % INCIDENCE OF MORTALITY: mortality at 60 min; for deaths due to conduction block (60 min), actual incidence (value in parenthesis) / deaths due to tachyarrhythmia (60 min), actual incidence (value in parenthesis): number of animals; for actual incidence of VF (value in parenthesis) / actual incidence of VT (value in parenthesis) / actual incidence of mortality (value in parenthesis): number of animals of the group; for % INCIDENCE OF VF / % INCIDENCE OF VT: ouabain 240 μg/kg in three doses, observed one hour; for DEATHS DUE TO CONDUCTION BLOCK (60 MIN) Percentage / DEATHS DUE TO TACHYARRHYTHMIA (60 MIN) Percentage: percentage deaths out of total mortality; for actual incidence of mortality (value in parenthesis): 60 min
# Description: Method: Guinea pigs (Dunken Hartley) of either sex weighing between 400 and 500 g were used for the study. The animals were anesthetized with urethane (1.25 g/kg. i.p.). The left common carotid artery and left jugular vein were cannulated for arterial blood pressure monitoring and intravenous access respectively. Lead II electrocardiogram, arterial blood pressure, mean arterial blood pressure (MABP), heart rate were monitored throughout the experiment.
# After initial surgical preparations and allowing 30 minutes for the animal to stabilise the first dose of ouabain (90 μg/kg) was administered over a period of one minute. After the interval of thirty minutes, second dose of ouabain (60 μg/kg) was administered over a period of one minute. One minute after this dose, 0.5 ml saline (in control experiments) was administered over a period of one minute. After an interval of 10 minutes a third dose of ouabain (90 μg/kg) was administered over a period of one minute. […] The test compounds were administered to animals in test group in place of saline to evaluate their antiarrhythmic potential. From the ECG recordings, the incidence of VT, VF and mortality were recorded. The doses of ratios of sotalol isomers studied were 0.1, 0.5 and 2.5 mg/kg.
# Interpretation of ECG recordings: Minor disturbance in rhythm was not considered while evaluating ventricular tachyarrhythmias. A run of more than 3 ventricular ectopic beats having wide QRS complexes associated with partial haemodynamic collapse was considered as Ventricular Tachycardia (VT). Total morphological irregularity of repetitive complexes for at least six cycles associated with complete haemodynamic collapse was considered as Ventricular Fibrillation (VF). Successful arrhythmia protection was defined as no occurrence of VT and VF from the injection of saline/test drug till the end of the experiment.
# Statistics: Chi square test with continuity correction at 95% confidence limit was applied to find out the statistical significance between control and test groups for incidence of VT, VF and mortality. Whenever, any of the value in a cell was less than 5, Fischer's exact probability test was used.
# Results: Different ratios of sotalol in the dose range from 0.02 mg/kg to 12.5 mg/kg were studied in individual groups of animals. In all 18 groups were studied and at least 6 animals were used in each group. In control animals ouabain 240 μg/kg in three divided doses induced reproducible ventricular tachyarrhythmias in guinea pigs. It was observed that ventricular arrhythmias appeared after the administration of the third dose. Guinea pigs which responded early i.e. before or within 1 min. of administration of the second dose, were considered early responders and were not included in the study. […] In the study, control experiments were carried out randomly interspersed in test groups. Among the 42 control animals the incidence of VT was 81%, incidence of VF was 71.4% and the incidence of mortality at 60 minutes was 61.9%.
# [2] = system: beta adrenergic blockade, isolated right auricle preparation of rabbit; assay: Beta blocking potency (pA2 against isoprenaline) in isolated rabbit right auricle; conditions: isoprenaline chronotropic response, Schild's plot
# Procedure: Estimation of the beta blockade of various ratios of d- and l- isomers of sotalol was carried out in the isolated right auricle preparation of rabbit. The spontaneously beating right atrium was dissected and mounted in a 20 ml tissue bath. The resting tension on the atria was set at 1 g. The contractions were recorded using a force displacement transducer. The spontaneous contractions of the right atria were recorded isometrically and the heart rate was obtained as a derived parameter using a ratemeter that gave the output in beats per minute. Six different ratios of d and l isomers were investigated (1:1, 2:1, 3:1, 4:1, 5:1 and 1:0). Dose-response-curves (DRC) for isoprenaline in the isolated atria, using the chronotropic response were determined by cumulative addition of isoprenaline. The pA2 values of each of the ratios were estimated using the classical Schild's plot (Schild, 1957) and the values are shown in Table 1.
# [3] = guinea pig, in vivo, listed as 2.5:1 ratio (d:l)
compound,measurement,setting,value
"CC(C)NCC(O)c1ccc(NS(C)(=O)=O)cc1 (racemic) [dl-SOTALOL, N-[4-[1-hydroxy-2-[(1-methylethyl)amino]ethyl]phenyl] methane sulfonamide]",% INCIDENCE OF MORTALITY,[1]; 0.02 mg/kg,16.6%
same,"deaths due to conduction block (60 min), actual incidence (value in parenthesis)",[1]; 0.02 mg/kg,(0)
same,"deaths due to tachyarrhythmia (60 min), actual incidence (value in parenthesis)",[1]; 0.02 mg/kg,(1)
same,actual incidence of VF (value in parenthesis),[1]; 0.02 mg/kg,(5)
same,actual incidence of VT (value in parenthesis),[1]; 0.02 mg/kg,(5)
same,% INCIDENCE OF VF,[1]; 0.02 mg/kg,83.3%
same,% INCIDENCE OF VT,[1]; 0.02 mg/kg,83.3%
same,DEATHS DUE TO CONDUCTION BLOCK (60 MIN) Percentage,[1]; 0.02 mg/kg,00.0%
same,DEATHS DUE TO TACHYARRHYTHMIA (60 MIN) Percentage,[1]; 0.02 mg/kg,100.0%
same,actual incidence of mortality (value in parenthesis),[1]; 0.1 mg/kg,(2)
same,% INCIDENCE OF MORTALITY,[1]; 0.1 mg/kg,33.3%
same,"deaths due to conduction block (60 min), actual incidence (value in parenthesis)",[1]; 0.1 mg/kg,(1)
same,"deaths due to tachyarrhythmia (60 min), actual incidence (value in parenthesis)",[1]; 0.1 mg/kg,(1)
same,actual incidence of VF (value in parenthesis),[1]; 0.1 mg/kg,(2)
same,actual incidence of VT (value in parenthesis),[1]; 0.1 mg/kg,(2)*
same,% INCIDENCE OF VF,[1]; 0.1 mg/kg,33.3%
same,% INCIDENCE OF VT,[1]; 0.1 mg/kg,33.3%
same,DEATHS DUE TO CONDUCTION BLOCK (60 MIN) Percentage,[1]; 0.1 mg/kg,50.0%
same,DEATHS DUE TO TACHYARRHYTHMIA (60 MIN) Percentage,[1]; 0.1 mg/kg,50.0%
same,actual incidence of mortality (value in parenthesis),[1]; 0.5 mg/kg,(3)
same,% INCIDENCE OF MORTALITY,[1]; 0.5 mg/kg,50.0%
same,"deaths due to conduction block (60 min), actual incidence (value in parenthesis)",[1]; 0.5 mg/kg,(3)
same,"deaths due to tachyarrhythmia (60 min), actual incidence (value in parenthesis)",[1]; 0.5 mg/kg,(0)
same,actual incidence of VF (value in parenthesis),[1]; 0.5 mg/kg,(2)
same,actual incidence of VT (value in parenthesis),[1]; 0.5 mg/kg,(2)*
same,% INCIDENCE OF VF,[1]; 0.5 mg/kg,33.3%
same,% INCIDENCE OF VT,[1]; 0.5 mg/kg,33.3%
same,DEATHS DUE TO CONDUCTION BLOCK (60 MIN) Percentage,[1]; 0.5 mg/kg,100.0%
same,DEATHS DUE TO TACHYARRHYTHMIA (60 MIN) Percentage,[1]; 0.5 mg/kg,00.0%
same,protection against mortality,[1]; 2.5 mg/kg,no protection
same,protection from deaths due to tachyarrhythmias,[1]; 2.5 mg/kg,completely protected
same,actual incidence of mortality (value in parenthesis),[1]; 2.5 mg/kg,(6)
same,% INCIDENCE OF MORTALITY,[1]; 2.5 mg/kg,60.0%
same,% INCIDENCE OF MORTALITY,"[1]; 2.5 mg/kg, listed as d:l sotalol (ratio 1:1)",60%
same,"deaths due to conduction block (60 min), actual incidence (value in parenthesis)",[1]; 2.5 mg/kg,(6)
same,"deaths due to tachyarrhythmia (60 min), actual incidence (value in parenthesis)",[1]; 2.5 mg/kg,(0)*
same,actual incidence of VF (value in parenthesis),[1]; 2.5 mg/kg,(0)*
same,actual incidence of VT (value in parenthesis),[1]; 2.5 mg/kg,(0)*
same,% INCIDENCE OF VF,[1]; 2.5 mg/kg,00.0%
same,% INCIDENCE OF VT,[1]; 2.5 mg/kg,00.0%
same,DEATHS DUE TO CONDUCTION BLOCK (60 MIN) Percentage,[1]; 2.5 mg/kg,100.0%
same,DEATHS DUE TO TACHYARRHYTHMIA (60 MIN) Percentage,[1]; 2.5 mg/kg,00.0%
same,protection against ouabain induced VT,"[1]; 0.1, 0.5 and 2.5 mg/kg dose",able to protect
same,protection against VF,[1]; 0.1 and 0.5 mg/kg doses,some protection
same,cause of deaths,[1]; as the dose was increased,entirely due to conduction abnormalities
same,dose at which complete protection against VT was observed,"[1]; guinea pig, in vivo",2.5 mg/kg
same,dose that completely protected against VF,"[1]; guinea pig, in vivo",2.5 mg/kg
same,minimum protective dose against ouabain induced VT,"[1]; guinea pig, in vivo",0.1 mg/kg
same,cause of deaths,[1]; lower doses,due to tachyarrhythmias
same,protection against mortality,[1]; lower doses,reduced mortality
same,deaths due to conduction block increased,[1]; no dose stated,increased
same,pA2 Mean,[2],6.48
"CC(C)NCC(O)c1ccc(NS(C)(=O)=O)cc1 (centres unmarked) [2.5:1 RATIO, N-[4-[1-hydroxy-2-[(1-methylethyl)amino]ethyl]phenyl] methane sulfonamide]",mortality compared to 2:1 ratio at the same dose,[1]; 0.5 mg/kg,lower
same,protection against VF,[1]; 0.5 mg/kg,"some protection, it was not complete"
same,actual incidence of mortality (value in parenthesis),[1]; 0.5 mg/kg,(2)
same,protection against ouabain induced VT,"[1]; 0.5 mg/kg, listed as 2.5:1 ratio (d:l)",protection was not complete
same,% INCIDENCE OF MORTALITY,[1]; 0.5 mg/kg,33.3%
same,"deaths due to conduction block (60 min), actual incidence (value in parenthesis)",[1]; 0.5 mg/kg,(2)
same,"deaths due to tachyarrhythmia (60 min), actual incidence (value in parenthesis)",[1]; 0.5 mg/kg,(0)
same,actual incidence of VF (value in parenthesis),[1]; 0.5 mg/kg,(2)
same,actual incidence of VT (value in parenthesis),[1]; 0.5 mg/kg,(2)*
same,% INCIDENCE OF VF,[1]; 0.5 mg/kg,33.3%
same,% INCIDENCE OF VT,[1]; 0.5 mg/kg,33.3%
same,DEATHS DUE TO CONDUCTION BLOCK (60 MIN) Percentage,[1]; 0.5 mg/kg,100.0%
same,DEATHS DUE TO TACHYARRHYTHMIA (60 MIN) Percentage,[1]; 0.5 mg/kg,00.0%
same,protection against mortality,[1]; 2.5 mg/kg,protected significantly
same,protection from deaths due to tachyarrhythmias,[1]; 2.5 mg/kg,completely protected
same,protection against arrhythmias (VT and VF),"[1]; 2.5 mg/kg, listed as 2.5:1",completely protects; also recorded: complete protection
same,% INCIDENCE OF MORTALITY,[1]; 2.5 mg/kg,16.6%
same,% INCIDENCE OF MORTALITY,"[1]; 2.5 mg/kg, listed as 2.5:1",16.6%
same,"deaths due to conduction block (60 min), actual incidence (value in parenthesis)",[1]; 2.5 mg/kg,(1)
same,"deaths due to tachyarrhythmia (60 min), actual incidence (value in parenthesis)",[1]; 2.5 mg/kg,(0)
same,actual incidence of VF (value in parenthesis),[1]; 2.5 mg/kg,(0)*
same,actual incidence of VT (value in parenthesis),[1]; 2.5 mg/kg,(0)*
same,% INCIDENCE OF VF,[1]; 2.5 mg/kg,0.0%
same,% INCIDENCE OF VT,[1]; 2.5 mg/kg,0.0%
same,DEATHS DUE TO CONDUCTION BLOCK (60 MIN) Percentage,[1]; 2.5 mg/kg,100.0%
same,DEATHS DUE TO TACHYARRHYTHMIA (60 MIN) Percentage,[1]; 2.5 mg/kg,00.0%
same,dose at which complete protection against VT was observed,[1]; [3],2.5 mg/kg
same,dose that completely protected against VF,[1]; [3],2.5 mg/kg
same,cause of deaths,[1]; no dose stated,due to conduction abnormalities
same,mortality compared with control groups,[1]; no dose stated,less than that of control groups
"CC(C)NCC(O)c1ccc(NS(C)(=O)=O)cc1 (centres unmarked) [5:1, N-[4-[1-hydroxy-2-[(1-methylethyl)amino]ethyl]phenyl] methane sulfonamide]",pA2 Mean,[2],5.85
